Measured values from US5098900A, “3(2H)pyridazinone, process for its preparation and anti-allergic agent containing it” (Nissan Chemical Industries Ltd., priority 1984, dated 1992).

Assays:
SRS-A = SRS-A antagonism in guinea-pig ileum (SRS-A-induced contraction); assay type: cell-based; conditions: 1 min, test compound 5×10^-7 g/ml, isolated guinea-pig ileum; for inhibition at 0.5 µg/mL: Cavia porcellus
Procedure: (i) SRS-A antagonism in quinea-pig ileum
SRS-A antagonism was determined against the contraction induced by SRS-A in isolated guinea-pig ileum. The SRS-A was prepared in accordance with the method of Brocklehurst (J. Physiol., 151, 416, 1960) and Kohno and Parker (J. Immunol., 125, 446, 1980). Adult male guinea-pigs (200-250 g) were sensitized with chick egg albumin (EA), 100 mg subcutaneously and 100 mg intraperitoneally. Three weeks later the animals were killed by a blow on the head and lungs were perfused free of blood with Tyrode solution passed through the right ventricle. Isolated lungs were chopped into pieces (1 mm^3) by a scissors in Tyrode solution and filtrated with gauze, and then 1.0-1.3 g of chopped lung fragments were distributed into individual tubes (9.7 ml of Tyrode solution/tube). EA solution (0.3 ml) at a 3×10^-4 g/ml final concentration was added to the tubes and incubated for 20 min at 37° C., and then the supernatant was used for the SRS-A antagonism.
Assay for SRS-A antagonism was performed as follows: Ileum preparations isolated from male guinea-pig (300-400 g) were suspended under 0.5 g tension in organ baths (5 ml) containing Tyrode solution maintained at 30° C. and gassed with 95% O2 +5% CO2. After the repeated responses to histamine (10^-7 g/ml) was established, the contractile response to SRS-A (0.5 ml) was carried out in the presence of 10^-6 M atropine and 10^-6 M pyrilamine. Test compounds dissolved in 100% dimethyl sulfoxide were added to the organ baths (final concentration of 5×10^-7 g/ml) 1 min prior to the SRS-A addition, and SRS-A-induced contractions were compared with those of control (SRS-A-induced contraction before the treatment). The SRS-A antagonism (%) =[1.0 - (SRS-A-induced contraction in test compound)/control]×100

LTC4 = LTC4 antagonism in isolated guinea-pig trachea (LTC4-induced contraction); assay type: cell-based; conditions: 5 min, test compound 10^-5 g/ml, LTC4 2×10^-8 g/ml, guinea-pig trachea; for inhibition at 10 µg/mL: Cavia porcellus, read-out: LTC4 antagonism
Procedure: (§1) (ii) LTC4 and LTD4 antagonisms in guinea-pig trachea
(§2) Antagonism for LTC4 and LTD4 were determined in isolated guinea-pig trachea prepared as spiral strip. 10 Tracheal preparations were suspended under 1 g tension in […] and they were incubated for 1 hr prior to use. Contractile responses to LTC4 (2×10^-8 g/ml) and LTD4 (2×10^-8 g/ml) were obtained after the maximal response to histamine (10^-4 M). Test compounds dissolved in 100% dimethyl sulfoxide were added to the organ baths (final concentration of 10^-5 g/ml) 5 min prior to LTC4 and LTD4 addition, and then contractile responses to LTC4 and LTD4 were compared with those of control which was obtained from a paired trachea in the absence of test compounds. LTC4 - and LTD4 -induced contractions were expressed as a percentage of the maximal response to histamine. The antagonism was determined as follows: Antagonism (%)=(1.0-% contraction in test/% contraction in control)×100

LTD4 [1] = assay: LTD4 antagonism in isolated guinea-pig trachea (LTD4-induced contraction); assay type: cell-based; conditions: Cavia porcellus, 5 min, test compound 10^-5 g/ml, LTD4 2×10^-8 g/ml
Procedure: as §1, §2

[2] = tested on: antigen-induced anaphylactic bronchoconstriction; assay: Effect on anaphylactic bronchoconstriction in passively sensitized guinea-pig; assay type: in vivo; conditions: 2 mg/kg, i.v.
Procedure: (iii) Effect on anaphylactic bronchoconstriction in passively sensitized guinea-pig
Male guinea-pigs (350-450 g) were passively sensitized with intravenous (i.v.) injection of 0.125 ml rabbit anti-EA serum (Cappel Laboratories) 1 day preceding the experiment. […] The right jugular vein was cannulated for the administration of the all agents and trachea was cannulated to record total pulmonary resistance. Guinea-pigs were artificially ventilated by a small animal respirator (Shinano, Model SN-480-7) set at a stroke volume of 4-5 ml and a rate of 50 breaths per min. […] The increase in air overflow volume was expressed as a percentage of the maximum bronchoconstriction obtained by clamping off the trachea. Following surgical preparation, the animals were pretreated with indomethacin (1.0 mg/kg, 10 min), pyrilamine (2 mg/kg, 6 min) and propranolol (0.1 mg/kg, 5 min) prior to the EA challenge (0.1 or 10 mg/kg). All test compounds, 2 mg/kg in 3% Tween 80 or 3% PEG-400, were administered 1 min before the EA challenge. Inhibition (%) of bronchoconstriction was determined as follows Inhibition (%)=(1.0% -maximum bronchoconstriction in test/% maximum bronchoconstriction in control) ×100.
In the Table, the dose of EA was 10 mg/kg, and each compound was dissolved or suspended in 3% Tween 80.
In the Table, the dose of EA was 0.1 mg/kg.
*: PEG represents polyethylene glycol400.

ddY strain male = assay: Acute toxicity test, method-(2), intraperitoneal injection; assay type: in vivo, ddY strain male (4 weeks old); conditions: 7 days
Procedure: The lethal ratio was determined in ddY strain male (4 weeks old) at 7 days after the intraperitoneal injection of test compounds.

LTD4 [3] = assay: Effect on bronchoconstriction induced by intravenous administration of LTD4; assay type: in vivo, guinea-pig; conditions: 2 mg/kg, i.v., in Tween 80; LTD4 2 μg/kg i.v.
Procedure: (iv) Effect on bronchoconstriction induced by intravenous (i.v.) administration of LTD4
Bronchoconstrictions induced by i.v. administration of LTD4 in guinea-pigs (350-450 g) were measured as described in anaphylactic bronchoconstriction. Guinea-pigs were anaesthetized with urethane (1.5 g/kg) and the trachea was cannulated to record total pulmonary resistance. The right jugular vein was cannulated for the administration of the all agents. The guinea-pigs were artificially ventilated by a small respirator set at a stroke volume of 5 ml and a rate of 50 breaths per min. LTD4 (2 μg/kg)-induced bronchoconstriction was shown by the increase in air overflow volume. After the response to histamine (5 μg/kg) was checked, the first response to LTD4 was obtain-d as control. […] Inhibition (%) of the bronchoconstriction was determined as follows: Inhibition (%) =(1.0 -peak value in the second response/peak value in the first response)×100.

SMILES	inhibition at 0.5 µg/mL (SRS-A)	inhibition at 10 µg/mL (LTC4)	inhibition at 10 µg/mL (LTD4 [1])	also measured
CC(C)(C)n1ncc(NCc2ccc(N3CCOCC3)cc2)c(Cl)c1=O [compound 30]	53%	13%	–	–
COc1ccc(CNc2cnn(C(C)(C)C)c(=O)c2Cl)cc1C [Compound No. 12]	73%	67%	–	–
CC(C)(C)n1ncc(NCc2ccc(CN3CCOCC3)cc2)c(Cl)c1=O [compound 33]	41%	17%	–	–
COc1ccc(CNc2cnn(C(C)C)c(=O)c2Cl)c(OC)c1 [Compound No. 97, 4-chloro-5-(2,4-dimethoxybenzylamino)-2-i-propyl-3(2H)pyridazinone]	–	100%	100%	Inhibition of anaphylactic bronchoconstriction ([2]; EA 0.1 mg/kg, Tween 80): 32%; Lethal ratio (Death number/Experimental number) (ddY strain male; 200 mg/kg): 0/2; Lethal ratio (Death number/Experimental number) (ddY strain male; 400 mg/kg): 0/1
CN1CCN(Cc2ccc(CNc3cnn(C(C)(C)C)c(=O)c3Cl)cc2)CC1 [compound 34]	19%	–	–	–
CC(C)(C)n1ncc(NCc2ccc(C(=O)O)cc2)c(Cl)c1=O [Compound No. 23, 4-chloro-5-(4-carboxybenzylamino)-2-t-butyl-3(2H)pyridazinone]	18%	–	–	–
CSc1ccc(CNc2cnn(C(C)(C)C)c(=O)c2Cl)cc1 [compound 21]	77%	36%	–	–
CC(C)(C)n1ncc(NCc2ccc(Cl)cc2)c(Cl)c1=O [compound 22]	76%	20%	–	Inhibition of anaphylactic bronchoconstriction ([2]; EA 10 mg/kg, 3% Tween 80): 23%
CCN1CCN(Cc2ccc(CNc3cnn(C(C)(C)C)c(=O)c3Cl)cc2)CC1 [compound 35]	10%	–	–	LTC4 antagonism (LTC4): 37%
CN1CCN(C(=O)c2ccc(CNc3cnn(C(C)(C)C)c(=O)c3Cl)cc2)CC1 [compound 41]	15%	–	–	–
CCCOc1cc(CNc2cnn(C(C)C)c(=O)c2Cl)ccc1OC [Compound No. 106, 4-Chloro-5-(3-n-propoxy-4-methoxybenzylamino)-2-i-propyl-3(2H)pyridazinone]	–	100%	100%	Inhibition of anaphylactic bronchoconstriction ([2]; EA 0.1 mg/kg, Tween 80): 65%; Lethal ratio (Death number/Experimental number) (ddY strain male; 200 mg/kg): 0/2; Lethal ratio (Death number/Experimental number) (ddY strain male; 400 mg/kg): 0/1
CCN1CCN(C(=O)c2ccc(CNc3cnn(C(C)(C)C)c(=O)c3Cl)cc2)CC1 [compound 42]	14%	–	–	–
COc1ccc(CNc2cnn(C(C)(C)C)c(=O)c2Cl)cc1OC [Compound No. 16]	55%	96%	–	–
CCOc1cc(CNc2cnn(C(C)C)c(=O)c2Cl)ccc1OC [compound 103]	–	100%	100%	Inhibition of anaphylactic bronchoconstriction ([2]; EA 0.1 mg/kg, Tween 80): 76%; Lethal ratio (Death number/Experimental number) (ddY strain male; 200 mg/kg): 0/2
CC(C)c1ccc(CNc2cnn(C(C)(C)C)c(=O)c2Cl)cc1 [Compound No. 5]	74%	67%	–	–
COc1ccccc1CNc1cnn(C(C)C)c(=O)c1Cl [compound 86]	–	100%	87%	Inhibition of anaphylactic bronchoconstriction ([2]; EA 0.1 mg/kg, Tween 80): 29%; Lethal ratio (Death number/Experimental number) (ddY strain male; 200 mg/kg): 0/2; Lethal ratio (Death number/Experimental number) (ddY strain male; 400 mg/kg): 0/1
COCCNC(=O)c1ccc(CNc2cnn(C(C)(C)C)c(=O)c2Cl)cc1 [compound 55]	12%	14%	–	–
CCN(CC)Cc1ccc(CNc2cnn(C(C)(C)C)c(=O)c2Cl)cc1 [compound 32]	18%	20%	–	–
CCOc1cccc(CNc2cnn(CC)c(=O)c2Cl)c1 [compound 88]	–	81%	95%	Inhibition of anaphylactic bronchoconstriction ([2]; EA 0.1 mg/kg, Tween 80): 45%; Lethal ratio (Death number/Experimental number) (ddY strain male; 200 mg/kg): 0/2; Lethal ratio (Death number/Experimental number) (ddY strain male; 400 mg/kg): 0/2
CCn1ncc(NCc2cccc(C)c2)c(Cl)c1=O [compound 75]	–	100%	90%	Inhibition of anaphylactic bronchoconstriction ([2]; EA 0.1 mg/kg, Tween 80): 57%; Lethal ratio (Death number/Experimental number) (ddY strain male; 100 mg/kg): 0/2
CCOC(=O)c1ccc(CNc2cnn(C(C)(C)C)c(=O)c2Cl)cc1 [Compound No. 52]	72%	–	–	Inhibition of anaphylactic bronchoconstriction ([2]; EA 10 mg/kg, 3% Tween 80): 30%
CCCOc1cc(CNc2cnn(CC)c(=O)c2Cl)ccc1OC [Compound No. 105]	–	100%	100%	Inhibition of anaphylactic bronchoconstriction ([2]; EA 0.1 mg/kg, Tween 80): 29%; Lethal ratio (Death number/Experimental number) (ddY strain male; 100 mg/kg): 0/2
Cc1cccc(CNc2cnn(C(C)(C)C)c(=O)c2Cl)c1 [Compound No. 2]	47%	84%	–	Inhibition of anaphylactic bronchoconstriction ([2]; EA 10 mg/kg, 3% Tween 80): 21%
CCCOc1ccc(CNc2cnn(C(C)(C)C)c(=O)c2Cl)cc1 [compound 11]	74%	25%	–	Inhibition of anaphylactic bronchoconstriction ([2]; EA 10 mg/kg, 3% Tween 80): 21%
CC(C)(C)n1ncc(NCc2ccccc2)c(Cl)c1=O [Compound No. 1]	14%	–	–	Inhibition of LTD4-induced bronchoconstriction (LTD4 [3]): 23%
CCN(CC)C(=O)c1ccc(CNc2cnn(C(C)(C)C)c(=O)c2Cl)cc1 [compound 38]	31%	–	–	–
CC(C)(C)n1ncc(NCc2ccc3c(c2)OCO3)c(Cl)c1=O [compound 18]	74%	–	–	–
CCOc1cccc(CNc2cnn(C(C)C)c(=O)c2Cl)c1 [Compound No. 89]	–	89%	95%	Inhibition of anaphylactic bronchoconstriction ([2]; EA 0.1 mg/kg, PEG (polyethylene glycol 400)): 79%; Lethal ratio (Death number/Experimental number) (ddY strain male; 200 mg/kg): 0/2; Lethal ratio (Death number/Experimental number) (ddY strain male; 400 mg/kg): 0/1
COc1ccc(CNc2cnn(C(C)C)c(=O)c2Cl)cc1 [Compound No. 87]	–	–	100%	Inhibition of anaphylactic bronchoconstriction ([2]; EA 0.1 mg/kg, Tween 80): 61%; Lethal ratio (Death number/Experimental number) (ddY strain male; 200 mg/kg): 0/2; Lethal ratio (Death number/Experimental number) (ddY strain male; 400 mg/kg): 0/2
CN(C)c1ccc(CNc2cnn(C(C)(C)C)c(=O)c2Cl)cc1 [Compound No. 25, 4-Chloro-5-(4-dimethylaminobenzylamino)-2-t-butyl-3(2H)-pyridazinone]	–	–	–	SRS-A antagonism (SRS-A): 81%
